As a reminder, the melting point is the temperature, or range, at which the solid turns liquid. Broadly, the IC50 is the concentration needed to halve the response being measured.

Like-named read-outs stand apart in the source and are kept apart here. A value given as a limit tells only on which side of the number the result lay.

Data set [1] has as its system MCF-7 breast cancer (+ve ER) cells. The experiment in a line: MTT cytotoxicity assay, MCF-7. The format is cell-based. Conditions: mean ± SD of three experiments, NA = no or negligible activity in initial crystal violet screening. The protocol:
(§1) The cytotoxic activity of the new synthesized compounds was tested in different mammalian cancer cells, breast cancer (+ve ER) (MCF-7), breast cancer (−ve ER) (MDA-MB-231), tongue (oral cancer) (SAS), prostate cancer (PC-3), colorectal cancer (HCT-116) and hepatocellular carcinoma (HuH-7 and HepG-2). The cell lines were obtained from the American Type Culture Collection (ATCC). The cells were cultivated at 37 °C and 5% CO2 in DMEM (Lonza) medium supplemented with 10% fetal bovine serum (Lonza), 100 IU/mLpenicillin and 100 µg/mL streptomycin (Lonza). Cisplatin was used as a positive control and was obtained from Sigma-Aldrich. The synthesized compounds were solubilized in DMSO and stored at −20 °C. For the initial screening, 0.5% crystal violet was used. The viability of the cells were determined by using the MTT reagent.
(§2) “The cells were seeded in a 96-well plate and serial dilutions of the tested compounds or cisplatin was added after overnight incubation of the cells at 37 °C and 5% CO2. DMSO was used as a negative control (0.1%). After that, MTT (5 mg/mL PBS) was added after 48 hours of incubation. The formazan crystals were solubilized by the acidified SDS solution. The absorbance was recorded at 570 nm by Biotech ELx-800™ plate reader (Winooski, VT, USA). The viability assay was performed 3 times and the standard deviation was determined (±). IC50 was calculated as the concentration that causes 50% inhibition of cell growth. The selectivity index was calculated as previously reported” [26, 27].
For orientation: Tetrazolium dyes change colour on reduction, which living cells bring about.

For data set [2], the system named is MDA-MB-231 breast cancer (−ve ER) cells. The experiment in a line: MTT cytotoxicity assay, MDA-MB-231. Conditions: mean ± SD of three experiments, NA = no or negligible activity in initial crystal violet screening. The class given is cell-based. The procedure: as §1, §2
The subject of a further data set is HepG2 liver cancer cells. The experiment in a line: MTT cytotoxicity assay, HepG2. Conditions: mean ± SD of three experiments, NA = no or negligible activity in initial crystal violet screening. The format is cell-based. The protocol: as §1, §2
For data set [3], the system named is SAS tongue carcinoma (oral cancer) cells. Kind of data set: MTT cytotoxicity assay, SAS. The class given is cell-based. The following applies: 48 h, mean ± SD of three experiments, NA = no or negligible activity in initial crystal violet screening. The protocol: as §1, §2
For data set [4], the system named is PC-3 prostate cancer cells. The experiment in a line: MTT cytotoxicity assay, PC-3. The following applies: 48 h, mean ± SD of three experiments, NA = no or negligible activity in initial crystal violet screening. The format is cell-based. The protocol: as §1, §2
The subject of data set [5] is HCT-116 colorectal cancer cells. Kind of data set: MTT cytotoxicity assay, HCT-116. The format is cell-based. The following applies: mean ± SD of three experiments, NA = no or negligible activity in initial crystal violet screening, read-out: IC50 Colon HCT-116. The protocol: as §1
(§3) “The cells were seeded in a 96-well plate and serial dilutions of the tested compounds or cisplatin was added after overnight incubation of the cells at 37 °C and 5% CO2. DMSO was used as a negative control (0.1%). After that, MTT (5 mg/mL PBS) was added after 48 hours of incubation. […] The absorbance was recorded at 570 nm by Biotech ELx-800™ plate reader (Winooski, VT, USA). The viability assay was performed 3 times and the standard deviation was determined (±). […] The selectivity index was calculated as previously reported” [26, 27].

The subject of another data set is HuH-7 liver cancer cells. Kind of data set: MTT cytotoxicity assay, HuH-7. The class given is cell-based. Conditions: mean ± SD of three experiments, NA = no or negligible activity in initial crystal violet screening. The protocol:
as §1, §3

The test system of data set [6] is seven cancer cell lines (MCF-7, MDA-MB-231, SAS, PC-3, HCT-116, HuH-7, HepG2). The experiment in a line: Anticancer screening against the panel of seven cancer cell lines (crystal violet initial screening). The class given is cell-based. The following applies: concentration of 50 μM. The procedure: To evaluate the anticancer activity of the 13 newly synthesized compounds, we screened their activities at a concentration of 50 μM against seven cancer cell lines, including breast cancer (positive [MCF-7] and negative [MDA-MB-231] for estrogen receptor expression), tongue carcinoma (SAS), prostate cancer (PC-3), colorectal cancer (HCT-116) and liver cancer (HuH-7 and HepG2) cell lines. […] The 3-(4,5-dimethylthiazol-2-yl)-2,5-diphenyltetrazolium bromide (MTT) assay was performed to determine the concentration of the active compounds needed to kill 50% of cells.
as §1

`COc1ccc(C2CC(=O)CC(c3ccc(OC)cc3)C2(C(=O)Nc2ccc(Cl)cn2)C(=O)Nc2ccc(Cl)cn2)cc1` (stereo not drawn) [Compound 3g, N,N′-bis(5-Chloropyridin-2-yl)-2,6-bis(4-methoxyphenyl)-4-oxocyclohexane-1,1-dicarboxamide] showed a melting point of 203 to 204 °C.

Compound `Cc1ccc(C2CC(=O)CC(c3ccc(C)cc3)C2(C(=O)Nc2ccc(Cl)cn2)C(=O)Nc2ccc(Cl)cn2)cc1` (stereo not drawn) [Compound 3b, N,N′-bis(5-Chloropyridin-2-yl)-4-oxo-2,6-di-p-tolylcyclohexane-1,1-dicarboxamide] showed a melting point of 145 to 146 °C.

As to `O=C1CC(c2ccco2)C(C(=O)Nc2ccc(Cl)cn2)(C(=O)Nc2ccc(Cl)cn2)C(c2ccco2)C1` (stereo not drawn) [Compound 3j, N,N′-bis(5-Chloropyridin-2-yl)-2,6-di(furan-2-yl)-4-oxocyclohexane-1,1-dicarboxamide], the melting point fell in the range of 160 to 161 °C. Also, the IC50 in data set [1] (Homo sapiens, MCF7, 48 h) came to 50 ± 0.78 µM. Besides, inhibition in [2] (Homo sapiens, MDA-MB-231, 48 h) was half-maximal at 45 ± 3 µM (IC50). The same compound showed an IC50 with HepG2 liver cancer cells (Homo sapiens, HepG2, 48 h) of more than 50 µM.

For `N.N.[Cl][Pt][Cl]` [Cisplatin, reference compound], the IC50 came to 9 ± 2.43 µM in data set [1] (48 h); 15 ± 0.71 µM in data set [2] (48 h); 4.5 ± 0.34 µM in data set [3]; 12 ± 1.25 µM in data set [4]; 8 ± 0.76 µM in data set [5] (48 h); 14.7 ± 0.5 µM in the data set with HuH-7 liver cancer cells (48 h). The compound further gave an IC50 in the data set on HepG2 liver cancer cells (48 h) of 10 ± 0.65 µM.

`O=C1CC(c2ccc(Cl)cc2)C(C(=O)Nc2ccccn2)(C(=O)Nc2ccccn2)C(c2ccc(Cl)cc2)C1` (stereo not drawn) [Compound 3c, 2,6-bis(4-Chlorophenyl)-4-oxo-N,N′-di(pyridin-2-yl)cyclohexane-1,1-dicarboxamide] had a melting point of 231 to 232 °C. In addition, half-maximal inhibition in [1] (Homo sapiens, MCF7, 48 h) (IC50) was put at 10 ± 0.62 µM. The compound also showed an IC50 in [2] (Homo sapiens, MDA-MB-231, 48 h) of 7 ± 1.12 µM. The compound also gave an IC50 in data set [3] of 15 ± 1.3 µM. In [4], this compound registered an IC50 of 25 ± 1.42 µM. In addition, half-maximal inhibition in the data set on HepG2 liver cancer cells (Homo sapiens, HepG2, 48 h) (IC50) was put at 8 ± 0.89 µM. In addition, the “anticancer activity in initial screening” value in data set [6] is “showed different levels of anticancer activities”.

`O=C1CC(c2ccc(Cl)cc2Cl)C(C(=O)Nc2ccccn2)(C(=O)Nc2ccccn2)C(c2ccc(Cl)cc2Cl)C1` (stereo not drawn) [Compound 3d, 2,6-bis(2,4-Dichlorophenyl)-4-oxo-N,N′-di(pyridin-2-yl)cyclohexane-1,1-dicarboxamide] yielded a melting point of 210 to 211 °C. In addition, the IC50 in [1] (Homo sapiens, MCF7, 48 h) was more than 50 µM. Besides, in [2] (Homo sapiens, MDA-MB-231, 48 h), the IC50 was 18 ± 0.87 µM. Further, the IC50 with HepG2 liver cancer cells (Homo sapiens, HepG2, 48 h) is more than 50 µM. Moreover, the “anticancer activity in initial screening” value in data set [6] is on record as “showed different levels of anticancer activities”.

Compound `O=C1CC(c2cccc(Br)c2)C(C(=O)Nc2ccc(Cl)cn2)(C(=O)Nc2ccc(Cl)cn2)C(c2cccc(Br)c2)C1` (stereo not drawn) [Compound 3k, 2,6-bis(3-Bromophenyl)-N,N′-bis(5-chloropyridin-2-yl)-4-oxocyclohexane-1,1-dicarboxamide] displayed a melting point of 213 to 214 °C. For the same compound, in data set [6], the “anticancer activity in initial screening” value is “showed different levels of anticancer activities”.

Compound `O=C1CC(c2ccc(F)cc2)C(C(=O)Nc2ccccn2)(C(=O)Nc2ccccn2)C(c2ccc(F)cc2)C1` (stereo not drawn) [Compound 3m, 2,6-bis(4-Fluorophenyl)-4-oxo-N,N′-di(pyridin-2-yl)cyclohexane-1,1-dicarboxamide] registered a melting point of 245 to 246 °C.

For the compound `O=C1CC(c2cccs2)C(C(=O)Nc2ccc(Cl)cn2)(C(=O)Nc2ccc(Cl)cn2)C(c2cccs2)C1` (stereo not drawn) [Compound 3i, N,N′-bis(5-Chloropyridin-2-yl)-4-oxo-2,6-di(thiophen-2-yl)cyclohexane-1,1-dicarboxamide], the melting point is 165 to 166 °C.

Compound `O=C1CC(c2ccc3ccccc3c2)C(C(=O)Nc2ccc(Cl)cn2)(C(=O)Nc2ccc(Cl)cn2)C(c2ccc3ccccc3c2)C1` (stereo not drawn) [Compound 3h, N,N′-bis(5-Chloropyridin-2-yl)-2,6-di(naphthalen-2-yl)-4-oxocyclohexane-1,1-dicarboxamide] displayed a melting point of 114 to 115 °C.

In turn, `O=C1CC(c2ccc(C(F)(F)F)cc2)C(C(=O)Nc2ccc(Cl)cn2)(C(=O)Nc2ccc(Cl)cn2)C(c2ccc(C(F)(F)F)cc2)C1` (stereo not drawn) [Compound 3l, N,N′-bis(5-Chloropyridin-2-yl)-4-oxo-2,6-bis(4-(trifluoromethyl)phenyl)cyclohex-ane-1,1-dicarboxamide] registered a melting point of 138 to 139 °C. Also, it took 18 ± 1.71 µM to reach half-maximal inhibition in data set [1] (Homo sapiens, MCF7, 48 h) (IC50). The compound also gave an IC50 in [2] (Homo sapiens, MDA-MB-231, 48 h) of 5 ± 0.25 µM. In [3], the IC50 came to 9 ± 0.38 µM. In addition, the IC50 in [4] was more than 50 µM. Besides, the IC50 in [5] (Homo sapiens, HCT-116, 48 h) stood at 6 ± 0.78 µM. Further, in the data set with HuH-7 liver cancer cells (Homo sapiens, Huh-7, 48 h), 4.5 ± 0.3 µM corresponded to half-maximal inhibition (IC50). The compound further had an IC50 in the data set on HepG2 liver cancer cells (Homo sapiens, HepG2, 48 h) of 25 ± 0.38 µM. The “anticancer activity in initial screening” value in data set [6] is on record as “showed different levels of anticancer activities”.

Compound `O=C1CC(c2ccccc2)C(C(=O)Nc2ccccn2)(C(=O)Nc2ccccn2)C(c2ccccc2)C1` (stereo not drawn) [Compound 3a, 4-Oxo-2,6-diphenyl-N,N′-di(pyridin-2-yl)cyclohexane-1,1-dicarboxamide] registered a melting point of 248 to 249 °C.

Turning to `O=C1CC(c2cccc([N+](=O)[O-])c2)C(C(=O)Nc2ccc(Cl)cn2)(C(=O)Nc2ccc(Cl)cn2)C(c2cccc([N+](=O)[O-])c2)C1` (stereo not drawn) [Compound 3f, N,N′-bis(5-Chloropyridin-2-yl)-2,6-bis(3-nitrophenyl)-4-oxocyclohexane-1,1-dicarboxamide], the melting point is 174 to 175 °C.

In the case of `O=C1CC(c2ccc(Br)cc2)C(C(=O)Nc2ccccn2)(C(=O)Nc2ccccn2)C(c2ccc(Br)cc2)C1` (stereo not drawn) [Compound 3e, 2,6-bis(4-Bromorophenyl)-4-oxo-N,N′-di(pyridin-2-yl)cyclohexane-1,1-dicarboxamide], the IC50 in data set [1] (48 h) came to 12 ± 0.54 µM; in [2] (48 h) it was 5 ± 0.5 µM; in the data set on HepG2 liver cancer cells (48 h), 8 ± 0.96 µM. Further, in data set [6], the “anticancer activity in initial screening” value is on record as “showed different levels of anticancer activities”.

Values taken from article PMC6480224, “Synthesis of Pyridine-Dicarboxamide-Cyclohexanone Derivatives: Anticancer and α-Glucosidase Inhibitory Activities and In Silico Study” (Molecules, 2019).
